Reference: PMC9784689, “Bioactivity Profiling of In Silico Predicted Linear Toxins from the Ants Myrmica rubra and Myrmica ruginodis” (Toxins, 2022)
Where two headings read alike, the source gives them in different places. No end group written: not given here.

Columns and labels:
MDCK II cells = details: 48 h; for Cytotoxicity (cell viability), in words: MDCK II cells, 100 µM, 1% DMSO, CellTiter-Glo luminescence, triplicate; for Normalized data, cell viability: MDCK II, 100 µM peptides, CellTiter-Glo, normalized to DMSO control = 100% viability
[1] = system: larvae of the greater wax moth (Galleria mellonella); experiment: Insecticidal activity, injection into larvae; assay type: in vivo; details: G. mellonella larvae, 10 specimens; for Injected larvae surviving: injection of 5 µL of 10 mM stock in DMSO/water, at least 72 h
[2] = system: Escherichia coli, Staphylococcus aureus, Staphylococcus epidermidis, Pseudomonas aeruginosa (strains 50071 and 1117), Micrococcus luteus, Listeria …; experiment: Antibacterial activity, statements for the whole panel of seven strains; assay type: cell-based; details: 100 µM, after 48 h, MH II medium, 37 °C, OD600, triplicate
[3] = system: Influenza A/Hamburg/5/09 (H1N1) in MDCK II cells; assay type: cell-based, influenza A virus; details: 100 µM peptides, 48 h
[4] = system: Influenza B/Massachusetts/71 (Yamagata lineage) in MDCK II cells; assay type: cell-based, influenza B virus; details: B/Mass, 100 µM peptides, 48 h
[5] = system: Influenza B/Malaysia/2506/04 (Victoria lineage) in MDCK II cells; assay type: cell-based, influenza B virus; details: B/Mal, 100 µM peptides, 48 h
[6] = system: Influenza A/Hessen/1/03 (H3N2) in MDCK II cells; assay type: cell-based, influenza A virus; details: 100 µM peptides, 48 h
[7] = system: Micrococcus luteus (DSM 20030); details: M. luteus, 100 µM, after 48 h, MH II medium, 37 °C, OD600 normalized to untreated bacteria, triplicate
[8] = system: Micrococcus luteus (DSM 20030); details: at least 95% growth inhibition, nine log2 dilutions, triplicate, MH II, 48 h
Procedure: (§1) Cryo-conserved cultures (Table 3) were transferred with a sterile inoculation loop to tryptic soy agar (TSA) plates (Carl Roth) sealed with Parafilm (BEMIS, Neenah, WI, USA), and were incubated for 1–2 days at 37 °C depending on growth rates. Plates were then stored at 4 °C. For each of the three replicates, single colonies were picked with a sterile pipette tip, transferred into 2–3 mL Mueller-Hinton II (MH II) medium (BD, Heidelberg, Germany) and cultivated for ~24 h in unsealed 15 mL reaction tubes at 37 °C, shaking at 180 rpm. […] We measured the optical density at 600 nm (OD600) by transferring 1 mL of bacterial suspension to a polystyrene cuvette (SARSTED, Nümbrecht, Germany) in an Ultrospec 10 photometer (Biochrome, Cambridge, UK). […]
(§2) The experiments were carried out in 96-multiwell plates with a final volume of 100 µL per well (50 µL of bacterial suspension; 50 µL of testing peptide with a final concentration of 1.9% DMSO). […] The OD600 was measured after 0, 24, and 48 h using a BioTek Eon microplate reader and Gen5 v2.09. One experiment was carried out with automatic OD600 measurement every 20 min with a prior 30 s double orbital rotation at 237 rpm with overall incubation at 37 °C for 60 h in the microplate reader. […]

[9] = system: Escherichia coli DE3 (BL21(DE3)); assay type: cell-based; details: 20 µL per dilution from 48 h MIC experiments plated on TSA, n = 2
[10] = system: Staphylococcus epidermidis (ATCC 35984; DSM 28319); details: at least 95% growth inhibition, nine log2 dilutions, triplicate, MH II, 48 h
Procedure: as §1, §2

[11] = system: Staphylococcus aureus (DSM 2569); details: S. aureus, 100 µM, after 48 h, MH II medium, 37 °C, OD600 normalized to untreated bacteria, triplicate
[12] = system: Micrococcus luteus (DSM 20030); assay type: cell-based; details: 20 µL per dilution from 48 h MIC experiments plated on TSA, n = 2
[13] = system: Listeria monocytogenes (DSM 20600); assay type: cell-based; details: 20 µL per dilution from 48 h MIC experiments plated on TSA, n = 2
[14] = system: Staphylococcus epidermidis (ATCC 35984; DSM 28319); details: S. epidermidis, 100 µM, after 48 h, MH II medium, 37 °C, OD600 normalized to untreated bacteria, triplicate
[15] = system: Staphylococcus epidermidis (ATCC 35984; DSM 28319); assay type: cell-based; details: 20 µL per dilution from 48 h MIC experiments plated on TSA, n = 2
[16] = system: Staphylococcus aureus (DSM 2569); details: at least 95% growth inhibition, nine log2 dilutions, triplicate, MH II, 48 h
Procedure: as §1, §2

[17] = system: Escherichia coli DE3 (BL21(DE3)); details: at least 95% growth inhibition, nine log2 dilutions, triplicate, MH II, 48 h
Procedure: as §1, §2

[18] = system: Escherichia coli DE3 (BL21(DE3)); details: E. coli, 100 µM, after 48 h, MH II medium, 37 °C, OD600 normalized to untreated bacteria, triplicate
[19] = system: Listeria monocytogenes (DSM 20600); details: L. monocytogenes, 100 µM, after 48 h, MH II medium, 37 °C, OD600 normalized to untreated bacteria, triplicate

Row | Compound | Injected larvae surviving [1] [%] | Inhibition of bacterial growth, in words [2] | Normalized to Aprotinin =1 (protection) ([3]; replicate 1) | Normalized to Aprotinin =1 (protection) ([3]; replicate 2) | Normalized to Aprotinin =1 (protection) ([3]; replicate 3) | Normalized to Aprotinin =1 (protection) ([4]; replicate 1) | Normalized to Aprotinin =1 (protection) ([4]; replicate 2) | Normalized to Aprotinin =1 (protection) ([4]; replicate 3) | Normalized to Aprotinin =1 (protection) ([5]; replicate 1) | Normalized to Aprotinin =1 (protection) ([5]; replicate 2) | Normalized to Aprotinin =1 (protection) ([5]; replicate 3) | Normalized to Aprotinin =1 (protection) ([6]; replicate 1) | Normalized to Aprotinin =1 (protection) ([6]; replicate 2) | Normalized to Aprotinin =1 (protection) ([6]; replicate 3) | other results
1 | C[C@H](CCC(=O)O)C[C@H](C)C[C@H](C)C(=O)/C=C(\O)[C@H](C)C[C@H](C)C/C=C/[C@@H](C)[C@@H](O)[C@@H](C)[C@@H](O)C[C@@H]1CC[C@@](C)([C@H]2CC[C@@](C)([C@@H](C)O)O2)O1 [Ionomycin, ionomycin, reference compound] | – | – | – | – | – | – | – | – | – | – | – | – | – | – | Cytotoxicity (cell viability), in words (MDCK II cells): high cytotoxicity; Normalized data, cell viability (MDCK II cells; replicate 1): 0.2057%; Normalized data, cell viability (MDCK II cells; replicate 2): 0.1877%; Normalized data, cell viability (MDCK II cells; replicate 3): 0.1629%
2 | CCO [ethanol, reference compound] | – | – | – | – | – | – | – | – | – | – | – | – | – | – | Larvae killed (mortality) ([1]; injection (peptides 5 µL of 10 mM stock; ethanol control 10 µL), 72 h): 70%
3 | IDPKVLESLL-NH2 (C-terminus assumed) [U-MYRTX-Mrug2b] | 80 | no significant inhibition of bacterial growth | 0.05063 | 0.0441 | 0.04545 | 0.01653 | 0.01885 | 0.02698 | 0.03893 | 0.02764 | 0.1043 | 0.0328 | 0.05462 | 0.05537 | –
4 | IDSDALKSLQ-NH2 (C-terminus assumed) [U-MYRTX-Mrub4a/Mrug7a] | 80 | no significant inhibition of bacterial growth | 0.0395 | 0.05779 | 0.05022 | 0.01827 | 0.02714 | 0.01553 | 0.06158 | 0.1088 | 0.1041 | 0.05779 | 0.05634 | 0.06216 | –
5 | INPKLLESL-NH2 (C-terminus assumed) [U-MYRTX-Mrug5b] | 80 | no significant inhibition of bacterial growth | 0.02999 | 0.0228 | 0.007801 | 0.0139 | 0.008064 | 0.0246 | 0.03907 | 0.06268 | 0.0833 | 0.06533 | 0.04634 | 0.07887 | –
6 | INPKLWLKLF-NH2 [U-MYRTX-Mrug5a] | – | – | – | – | – | – | – | – | – | – | – | – | – | – | Inhibition of growth [7]: 89%; MIC [8]: 6.25 µM; MBC [9]: 50 µM; MIC [10]: 50 µM; Inhibition of growth [11]: 96%; MBC [12]: 6.25 µM; MBC [13]: 50 µM; Inhibition of growth [14]: 97%; MBC [15]: 50 µM; MIC [16]: 100 µM; Cytotoxicity (cell viability), in words (MDCK II cells): negligible cytotoxicity; MIC [17]: 50 µM; Inhibition of growth [18]: 97%; Inhibition of growth [19]: 81%
7 | KDSDSLKSFQ-NH2 (C-terminus assumed) [U-MYRTX-Mrug6a] | – | no significant inhibition of bacterial growth | 0.02785 | 0.0161 | 0.02305 | 0.007926 | 0.0129 | 0.01821 | 0.0613 | 0.07745 | 0.114 | 0.08543 | 0.06156 | 0.07217 | –
